According to publication PMC4434044, “Influence of terpenoids and acarbose on glycosyltransferases produced by strain Leuconostoc mesenteroides URE 13” (Biotechnology, Biotechnological Equipment, 2014):

Assays:
[1] = molecular target: T1, dextransucrase from Leuconostoc mesenteroides URE 13; test: fructose/glucose release from sucrose, coupled hexokinase assay; Lineweaver-Burk; assay type: biochemical; details: 1-200 mmol sucrose, 20 mmol/L sodium acetate pH 5.2, 30 °C, inhibition mode not stated
T1 construct: native extracellular enzyme, 180 kDa, from sucrose-grown culture; PEG 1500 precipitation and Sepharose CL-6B size-exclusion

[2] = tested on: T1, dextransucrase from Leuconostoc mesenteroides URE 13; test: fructose/glucose release from sucrose, coupled hexokinase assay; assay type: biochemical; details: 20 mmol/L sodium acetate pH 5.2-5.3, 30 °C; substrate inhibition above 200 mmol
[3] = terpenoid dissolved in DMSO (20% final)

Compound	Ki [1, 3] [mmol]	also measured
C[C@H]1O[C@H](O[C@H]2[C@H](O)[C@@H](O)[C@@H](O[C@H]3[C@H](O)[C@@H](O)C(O)O[C@@H]3CO)O[C@@H]2CO)[C@H](O)[C@@H](O)[C@@H]1N[C@H]1C=C(CO)[C@@H](O)[C@H](O)[C@H]1O (stereo partly shown) [acarbose]	–	Ki [1]: 0.29 mmol
OC[C@H]1O[C@@](CO)(O[C@H]2O[C@H](CO)[C@@H](O)[C@H](O)[C@H]2O)[C@@H](O)[C@@H]1O [sucrose]	–	Km [2]: 18.0 mmol
CC(=O)OC1C=CC2C(=O)OCC23CCC2C(=O)OC(c4ccoc4)C(OC(C)=O)C2(C)C13 (stereo not shown) [splendidin]	0.28	–
C[C@H]1[C@H](C)CC[C@]2(C(=O)O)CC[C@]3(C)C(=CC[C@@H]4[C@@]5(C)CC[C@H](O)C(C)(C)[C@@H]5CC[C@]43C)[C@H]12 [ursolic acid]	0.37	–
